Activity calls are given as the source filed them.
Key:
HEK293 [1] = assay: PMA/Ionomycin induced NF-kB luciferase assay in 293- NF-kB-Luc stable cells. [Related pubchem assays: 1299, 1270, 1295, 1375, 1287, 1281, 1293, 1291, 1289, 1280, 465, 1364, 1282, 1372, 1365, 1370, 1367, 1366, 1269, 1373, 1292, 1290, 1302, 1371, 1283, 1271, 1294, 1374, 1368, 1369 ]; type: functional, cell-based; settings: Homo sapiens
[2] = target: Luciferin 4-monooxygenase (Photinus pyralis, UniProt P08659); assay: In vitro luciferase assay using purified luciferase. [Related pubchem assays: 1299, 1270, 1295, 1375, 1287, 1281, 1293, 1291, 1289, 1280, 465, 1364, 1282, 1372, 1365, 1370, 1367, 1366, 1266, 1373, 1292, 1290, 1302, 1371, 1283, 1271, 1294, 1374, 1368, 1369 ]
Chain of Luciferin 4-monooxygenase (P08659 whole entry): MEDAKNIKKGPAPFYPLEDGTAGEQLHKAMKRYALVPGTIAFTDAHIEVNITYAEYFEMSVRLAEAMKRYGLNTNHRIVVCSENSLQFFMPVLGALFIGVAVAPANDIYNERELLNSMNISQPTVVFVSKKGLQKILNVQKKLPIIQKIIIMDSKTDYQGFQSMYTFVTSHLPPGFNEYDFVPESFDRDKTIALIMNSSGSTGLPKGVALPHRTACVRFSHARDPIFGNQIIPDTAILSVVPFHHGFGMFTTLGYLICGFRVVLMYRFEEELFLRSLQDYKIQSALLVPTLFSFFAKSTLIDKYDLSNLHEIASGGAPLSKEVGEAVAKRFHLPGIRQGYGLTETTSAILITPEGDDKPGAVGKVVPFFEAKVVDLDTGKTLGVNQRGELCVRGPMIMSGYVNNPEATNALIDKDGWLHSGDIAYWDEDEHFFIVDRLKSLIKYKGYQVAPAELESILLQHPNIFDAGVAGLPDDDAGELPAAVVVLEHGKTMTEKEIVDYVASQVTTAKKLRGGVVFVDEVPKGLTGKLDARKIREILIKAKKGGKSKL

HEK293 [3] = assay: Cytotoxicity assay in HEK293 cells. [Related pubchem assays (depositor defined):AID1266, AID1269, AID1270, AID1271, AID1280, AID1281, AID1282, AID1283, AID1287, AID1289, AID1290, AID1291, AID1292, AID1293, AID1294, AID1295, AID1299, AID1302, AID1364, AID1365, AID1366, AID1367, AID1369, AID1370, AID1371, AID1372, AID1373, AID1374, AID1375, AID1384 …; type: functional, cell-based; settings: Homo sapiens
HEK293 [4] = assay: TNF Induced NF-kB Luciferase in 293-NF-kB-Luc Stable Cells. [Related pubchem assays: 1266, 1299, 1269, 1373, 1292, 1290, 1302, 1371, 1283, 1270, 1295, 1271, 1375, 1294, 1374, 1281, 1293, 1291, 1289, 1280, 465, 1368, 1364, 1282, 1372, 1365, 1369, 1370, 1367, 1366 ]; type: functional, cell-based; settings: Homo sapiens
[5] = target: Photoreceptor-specific nuclear receptor (Homo sapiens, UniProt Q9Y5X4); type: functional, cell-based;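 also: CHO-S cells with Gal4-NCOR and VP16-NR2E3 two-hybrid luciferase reporter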
[6] = A549 cell cytotoxicity, dose response, cytotoxicity control, plate reader, cherry-pick, antagonist series (AID 743412); type: functional, cell-based
[7] = toxicity toward HepG2 liver cells – cell-based, plate reader, cherry-pick, antagonist series, cytotoxicity control, dose response (AID 743416); type: functional
[8] = blockers of bursicon-stimulated LGR2 cAMP reporter – cell-based, HEK293, CRE-luciferase reporter, cherry pick, set 2, dose response (AID 743343); type: functional;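 also: transfected cells were stimulated with diluted bursicon conditioned medium after compound addition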
[9] = blockade of melanocortin 4 receptor signaling – cell-based, plate reader, cherry pick, counter-screen for LGR2 antagonist project, dose response (AID 743444); type: functional;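 also: transfected HEK 293 cells stimulated with alpha-MSH peptide; potency of inhibitors of the alpha-MSH evoked signal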
[10] = viability loss in HEK293 cells – cell-based, plate reader, cherry-picked samples, cytotoxicity control, dose response (AID 743446); type: functional
[11] = target: Neuropeptide Y receptor type 2 (Homo sapiens, UniProt P49146); assay: Fluorescence-based counterscreen for agonists of NPY-Y1: cell-based high-throughput dose response assay for agonists of NPY-Y2.; type: functional
Chain of Neuropeptide Y receptor type 2 (P49146 whole entry): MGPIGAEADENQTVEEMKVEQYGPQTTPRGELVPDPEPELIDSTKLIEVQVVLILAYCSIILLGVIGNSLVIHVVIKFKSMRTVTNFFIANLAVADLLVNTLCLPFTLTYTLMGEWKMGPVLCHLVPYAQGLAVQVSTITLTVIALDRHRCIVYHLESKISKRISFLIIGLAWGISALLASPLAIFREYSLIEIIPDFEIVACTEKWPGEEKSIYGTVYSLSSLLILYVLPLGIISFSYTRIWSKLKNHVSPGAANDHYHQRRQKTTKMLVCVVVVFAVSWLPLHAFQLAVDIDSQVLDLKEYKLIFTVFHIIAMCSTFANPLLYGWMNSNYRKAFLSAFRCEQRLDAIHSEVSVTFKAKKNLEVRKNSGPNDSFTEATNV

HEK293 [12] = assay: Fluorescence-based counterscreen for potentiators or agonists of NPY-Y1: cell-based high-throughput dose response assay for inhibitors of cyclic nucleotide gated ion channel (CNGC) activity. In this assay, the parental HEK293 cell line transfected with a cyclic-nucleotide gated ion channel (CNGC)-based cAMP sensor is used to measure inhibition of isoproterenol-induced CNGC …; type: functional; settings: Homo sapiens
[13] = target: Neuropeptide Y receptor type 1 (Homo sapiens, UniProt P25929); assay: Fluorescence-based dose response cell-based high-throughput screening assay for agonists of NPY-Y1. [Related pubchem assays: 1697 (Screening assay (NPY-Y1 agonists).), 1359 (Screening assay (NPY-Y2 potentiators or agonists).), 1304 (Screening assay (NPY-Y1 potentiators or agonists).), 1704 (Screening assay (CNGC inhibitors).), 1791 (Summary AID.)]; type: functional
Chain of Neuropeptide Y receptor type 1 (P25929 whole entry): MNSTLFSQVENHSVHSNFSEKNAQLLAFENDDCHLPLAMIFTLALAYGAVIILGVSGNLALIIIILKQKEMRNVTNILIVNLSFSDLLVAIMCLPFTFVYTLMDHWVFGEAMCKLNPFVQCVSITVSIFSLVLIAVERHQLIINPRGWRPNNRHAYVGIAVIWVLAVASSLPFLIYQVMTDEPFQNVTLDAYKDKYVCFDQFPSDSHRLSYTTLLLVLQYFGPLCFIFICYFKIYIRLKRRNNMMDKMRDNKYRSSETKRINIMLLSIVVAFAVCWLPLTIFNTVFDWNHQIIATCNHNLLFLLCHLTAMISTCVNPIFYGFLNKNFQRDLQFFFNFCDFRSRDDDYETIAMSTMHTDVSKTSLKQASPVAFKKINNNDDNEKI

Protein Rev = Protein Rev (Human immunodeficiency virus type 1 group M subtype B (isolate HXB2)(HIV-1), UniProt P04618); assay: blockers of HIV Rev/RRE RNA complex – biochemical, fluorescence polarization, HIV-1, dose response (AID 434976); set-up: species or system Human immunodeficiency virus 1
Chain of Protein Rev (P04618 whole entry): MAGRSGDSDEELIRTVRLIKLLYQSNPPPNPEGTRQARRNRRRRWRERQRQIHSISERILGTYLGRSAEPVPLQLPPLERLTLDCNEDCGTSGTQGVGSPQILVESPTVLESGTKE

[14] = target: Female germline-specific tumor suppressor gld-1 (Caenorhabditis elegans, UniProt Q17339); assay: blockers of GLD-1/TGE RNA complex formation – biochemical, fluorescence polarization, C. elegans, dose response (AID 2802);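 also: fluorescence polarization of labeled TGE RNA bound by purified gld-1 protein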
Chain of Female germline-specific tumor suppressor gld-1 (Q17339 whole entry): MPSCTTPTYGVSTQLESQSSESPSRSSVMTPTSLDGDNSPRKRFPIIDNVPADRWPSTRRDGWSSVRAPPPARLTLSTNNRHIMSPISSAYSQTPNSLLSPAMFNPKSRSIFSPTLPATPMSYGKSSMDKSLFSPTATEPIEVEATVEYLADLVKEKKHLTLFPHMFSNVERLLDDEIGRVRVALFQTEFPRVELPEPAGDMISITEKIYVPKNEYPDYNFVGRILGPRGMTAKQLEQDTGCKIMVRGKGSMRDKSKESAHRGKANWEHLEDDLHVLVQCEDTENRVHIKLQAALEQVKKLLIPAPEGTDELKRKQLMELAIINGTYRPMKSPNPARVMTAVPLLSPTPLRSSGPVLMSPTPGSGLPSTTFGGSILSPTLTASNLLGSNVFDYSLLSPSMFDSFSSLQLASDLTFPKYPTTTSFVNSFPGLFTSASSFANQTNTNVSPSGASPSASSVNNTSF

[15] = target: T1, Polyadenylate-binding protein 1 (Homo sapiens, UniProt P11940); assay: MLLE binding blockers, Cy5 peptide tracer – biochemical, fluorescence polarization, Cy5-PAM2 peptide, secondary, miRNA deadenylation inhibitor project, dose response (AID 602260); type: functional; settings: read-out: IC50_Mean
T1 sequence (P11940 whole entry, the tested form may be a part): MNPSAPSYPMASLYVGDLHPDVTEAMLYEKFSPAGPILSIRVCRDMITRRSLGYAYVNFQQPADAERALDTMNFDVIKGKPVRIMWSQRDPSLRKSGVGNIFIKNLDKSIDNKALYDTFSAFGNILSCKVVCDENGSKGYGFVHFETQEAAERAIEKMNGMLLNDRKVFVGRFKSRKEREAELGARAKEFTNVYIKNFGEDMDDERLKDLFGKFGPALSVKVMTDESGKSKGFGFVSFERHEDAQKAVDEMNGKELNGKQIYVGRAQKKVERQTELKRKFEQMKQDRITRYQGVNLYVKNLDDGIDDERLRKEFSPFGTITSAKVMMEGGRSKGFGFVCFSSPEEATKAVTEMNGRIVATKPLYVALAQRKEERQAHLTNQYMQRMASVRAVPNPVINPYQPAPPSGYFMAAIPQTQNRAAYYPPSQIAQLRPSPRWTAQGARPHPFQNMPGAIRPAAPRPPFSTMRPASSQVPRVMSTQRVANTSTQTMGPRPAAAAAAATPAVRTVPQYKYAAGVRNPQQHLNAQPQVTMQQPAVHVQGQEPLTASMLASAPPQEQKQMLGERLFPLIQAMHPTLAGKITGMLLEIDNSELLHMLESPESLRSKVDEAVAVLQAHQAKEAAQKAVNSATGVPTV

[16] = target: T1, Polyadenylate-binding protein 1; assay: MLLE domain peptide-binding blockers, IC50 – biochemical, fluorescence polarization, FITC-PAM2 peptide, dose response (AID 602259); type: functional; settings: read-out: IC50_Mean
[17] = target: T2, Corticotropin-releasing factor receptor 2/Corticotropin-releasing factor-binding protein (Homo sapiens, UniProt P24387+Q13324); assay: activators of CRF receptor 2 with binding protein – uHTS hits, confirmation (AID 602473); type: functional; settings: read-out: EC50_Mean
T2 sequence (Q13324 whole entry): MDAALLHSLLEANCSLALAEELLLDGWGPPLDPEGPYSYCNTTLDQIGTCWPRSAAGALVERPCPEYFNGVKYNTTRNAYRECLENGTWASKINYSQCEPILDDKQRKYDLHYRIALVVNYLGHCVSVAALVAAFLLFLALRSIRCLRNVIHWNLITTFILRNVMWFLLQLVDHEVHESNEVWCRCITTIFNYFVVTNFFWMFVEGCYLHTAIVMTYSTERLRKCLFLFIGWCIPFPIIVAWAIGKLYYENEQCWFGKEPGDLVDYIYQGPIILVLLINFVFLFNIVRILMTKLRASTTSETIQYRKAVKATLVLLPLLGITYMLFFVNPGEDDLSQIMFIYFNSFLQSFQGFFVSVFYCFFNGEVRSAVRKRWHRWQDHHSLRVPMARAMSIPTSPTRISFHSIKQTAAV
T2 sequence (P24387 whole entry): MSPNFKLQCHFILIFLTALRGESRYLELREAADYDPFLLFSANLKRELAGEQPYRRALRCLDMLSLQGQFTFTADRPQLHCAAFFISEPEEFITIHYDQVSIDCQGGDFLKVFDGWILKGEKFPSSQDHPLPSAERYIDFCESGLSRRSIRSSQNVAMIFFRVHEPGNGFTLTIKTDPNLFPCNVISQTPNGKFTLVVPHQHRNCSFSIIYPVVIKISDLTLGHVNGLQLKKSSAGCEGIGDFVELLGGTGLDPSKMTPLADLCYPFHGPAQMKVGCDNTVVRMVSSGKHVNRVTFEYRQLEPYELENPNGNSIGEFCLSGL

[18] = target: T3, Sentrin-specific protease 1 (Homo sapiens, UniProt Q9P0U3); assay: SENP1 catalytic domain blockers, concentration series – biochemical, kinetic FRET, dose response (AID 651697); type: functional; settings: read-out: IC50_Mean
T3 sequence (Q9P0U3 whole entry): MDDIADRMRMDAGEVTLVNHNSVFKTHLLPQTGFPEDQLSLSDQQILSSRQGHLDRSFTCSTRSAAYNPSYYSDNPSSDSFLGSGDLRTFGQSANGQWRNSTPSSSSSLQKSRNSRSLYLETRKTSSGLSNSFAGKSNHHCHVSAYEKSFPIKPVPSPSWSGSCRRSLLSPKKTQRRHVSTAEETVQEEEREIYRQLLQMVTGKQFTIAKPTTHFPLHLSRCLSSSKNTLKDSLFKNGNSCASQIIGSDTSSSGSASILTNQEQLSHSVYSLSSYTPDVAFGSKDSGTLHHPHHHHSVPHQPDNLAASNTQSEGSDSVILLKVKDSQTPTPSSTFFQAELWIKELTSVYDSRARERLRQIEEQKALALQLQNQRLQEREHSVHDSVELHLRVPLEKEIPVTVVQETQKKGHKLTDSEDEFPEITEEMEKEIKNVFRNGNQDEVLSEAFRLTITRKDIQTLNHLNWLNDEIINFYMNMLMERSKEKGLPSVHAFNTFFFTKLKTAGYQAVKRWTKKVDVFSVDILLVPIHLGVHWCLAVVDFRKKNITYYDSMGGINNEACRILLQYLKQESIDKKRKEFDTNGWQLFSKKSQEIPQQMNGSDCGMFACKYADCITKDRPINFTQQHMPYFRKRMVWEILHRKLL

[19] = target: T3, Sentrin-specific protease 1; assay: Dose response confirmation of small molecule inhibitors of the catalytic domain of the SUMO protease, SENP1 in a FRET assay.; type: functional; settings: read-out: IC50_Mean
[20] = target: Melanin-concentrating hormone receptor 1 (Homo sapiens, UniProt Q99705); assay: Late-stage fluorescence-based counterscreen for antagonists of the G-protein coupled receptor 7 (GPR7): cell-based dose response assay to identify antagonists of the melanin-concentrating hormone receptor 1 (MCHR1). [Related pubchem assays (depositor defined):AID1861, AID1880, AID1952, AID2148, AID2251, AID2257, AID485339]; type: functional;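 also: stimulated with 30 nM MCH peptide agonist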
Chain of Melanin-concentrating hormone receptor 1 (Q99705 whole entry): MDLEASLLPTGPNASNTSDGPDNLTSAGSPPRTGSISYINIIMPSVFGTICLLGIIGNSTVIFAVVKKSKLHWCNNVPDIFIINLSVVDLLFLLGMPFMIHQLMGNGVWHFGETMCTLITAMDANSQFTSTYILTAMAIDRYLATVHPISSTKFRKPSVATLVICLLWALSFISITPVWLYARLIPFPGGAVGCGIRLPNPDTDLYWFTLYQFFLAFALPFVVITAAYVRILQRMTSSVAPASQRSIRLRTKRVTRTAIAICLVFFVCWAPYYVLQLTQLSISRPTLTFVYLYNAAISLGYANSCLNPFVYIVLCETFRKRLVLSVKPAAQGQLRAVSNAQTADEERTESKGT

[21] = target: T4, Neuropeptides B/W receptor type 1 (Homo sapiens, UniProt P48145); assay: human NPBW1 receptor blockade, IC50 – cell-based, fluorescence, dose response, late-stage follow-up (AID 463251); type: functional
T4 sequence (P48145 whole entry): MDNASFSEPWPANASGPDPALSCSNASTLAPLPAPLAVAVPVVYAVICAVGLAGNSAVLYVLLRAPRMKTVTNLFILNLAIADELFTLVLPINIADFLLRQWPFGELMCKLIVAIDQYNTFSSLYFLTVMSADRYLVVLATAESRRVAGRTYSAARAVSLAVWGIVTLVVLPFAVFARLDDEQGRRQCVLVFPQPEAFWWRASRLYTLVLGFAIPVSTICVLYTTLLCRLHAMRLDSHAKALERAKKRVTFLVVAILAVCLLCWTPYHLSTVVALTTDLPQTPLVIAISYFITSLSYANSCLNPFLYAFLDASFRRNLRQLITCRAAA

[22] = target: T5, Alkaline phosphatase, tissue-nonspecific isozyme (Homo sapiens, UniProt P05186)
T5 sequence (P05186 whole entry): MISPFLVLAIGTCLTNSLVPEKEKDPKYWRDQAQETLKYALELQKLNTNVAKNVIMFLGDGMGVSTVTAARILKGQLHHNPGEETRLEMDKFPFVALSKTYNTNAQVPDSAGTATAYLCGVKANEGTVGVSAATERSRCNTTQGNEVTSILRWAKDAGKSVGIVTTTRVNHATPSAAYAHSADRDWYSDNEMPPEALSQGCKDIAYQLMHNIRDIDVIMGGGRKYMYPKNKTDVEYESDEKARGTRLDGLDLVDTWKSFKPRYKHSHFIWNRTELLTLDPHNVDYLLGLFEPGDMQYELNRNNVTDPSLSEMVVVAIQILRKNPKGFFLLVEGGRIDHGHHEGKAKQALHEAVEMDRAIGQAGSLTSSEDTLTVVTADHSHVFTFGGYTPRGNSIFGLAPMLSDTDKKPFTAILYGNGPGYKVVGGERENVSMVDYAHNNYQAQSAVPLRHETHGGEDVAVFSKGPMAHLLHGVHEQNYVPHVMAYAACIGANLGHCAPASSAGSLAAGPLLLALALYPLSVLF

[23] = target: Transitional endoplasmic reticulum ATPase (Homo sapiens, UniProt P55072, C522A); assay: C522A mutant p97 ATPase inhibitors, dose response, counter-screen for p97 inhibitor project, biochemical, luminescence (AID 1544)
[24] = Trypanosoma cruzi growth suppression in host cells – NIH3T3 host cells, beta-gal luminescence, confirmation (AID 2044); type: functional, cell-based;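 also: intracellular parasites grown in NIH/3T3 mouse fibroblasts as host cells; luminescent beta-galactosidase reporter signal from transgenic T. cruzi replicating inside host cells; inhibitors lower the luminescence signal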
[25] = NIH3T3 cell viability loss – ATP luminescence, mouse fibroblasts, counter-screen, dose response (AID 2010); type: functional, cell-based;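 also: cells exposed to compound for about 90 hours before reading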
[26] = target: Transitional endoplasmic reticulum ATPase (Homo sapiens, UniProt P55072); assay: p97 ATPase inhibitors, dose response, biochemical (AID 1534)
Chain of Transitional endoplasmic reticulum ATPase (Homo sapiens, UniProt P55072) (P55072 whole entry): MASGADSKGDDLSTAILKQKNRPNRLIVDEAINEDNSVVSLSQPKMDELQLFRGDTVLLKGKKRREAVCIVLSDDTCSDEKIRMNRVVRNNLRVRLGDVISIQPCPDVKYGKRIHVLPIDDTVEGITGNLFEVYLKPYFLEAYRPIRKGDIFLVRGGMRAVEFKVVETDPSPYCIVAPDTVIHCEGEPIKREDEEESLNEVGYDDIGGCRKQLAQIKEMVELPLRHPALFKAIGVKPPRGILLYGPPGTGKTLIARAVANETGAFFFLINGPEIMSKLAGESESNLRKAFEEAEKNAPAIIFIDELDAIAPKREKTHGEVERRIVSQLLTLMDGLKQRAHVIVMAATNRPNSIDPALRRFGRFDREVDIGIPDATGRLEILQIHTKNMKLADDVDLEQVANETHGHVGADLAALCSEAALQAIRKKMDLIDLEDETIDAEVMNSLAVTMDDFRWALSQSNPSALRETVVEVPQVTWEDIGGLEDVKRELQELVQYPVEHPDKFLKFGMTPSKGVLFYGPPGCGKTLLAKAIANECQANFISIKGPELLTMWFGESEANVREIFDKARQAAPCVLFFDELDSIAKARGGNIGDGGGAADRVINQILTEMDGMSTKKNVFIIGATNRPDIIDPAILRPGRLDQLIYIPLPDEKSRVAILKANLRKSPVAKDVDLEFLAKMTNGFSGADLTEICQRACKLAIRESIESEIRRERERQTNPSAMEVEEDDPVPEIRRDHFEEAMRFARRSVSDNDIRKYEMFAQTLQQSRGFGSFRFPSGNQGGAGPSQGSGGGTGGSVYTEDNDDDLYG

cells = type: functional
[27] = target: Heat shock protein HSP 90-alpha (Homo sapiens, UniProt P07900); type: functional, organism-based
[28] = target: Mitochondrial peptide methionine sulfoxide reductase (Bos taurus, UniProt P54149); assay: Absorbance-based biochemical high throughput dose response assay for activators of Methionine sulfoxide reductase A (MsrA).; type: functional
Chain of Mitochondrial peptide methionine sulfoxide reductase (P54149 whole entry): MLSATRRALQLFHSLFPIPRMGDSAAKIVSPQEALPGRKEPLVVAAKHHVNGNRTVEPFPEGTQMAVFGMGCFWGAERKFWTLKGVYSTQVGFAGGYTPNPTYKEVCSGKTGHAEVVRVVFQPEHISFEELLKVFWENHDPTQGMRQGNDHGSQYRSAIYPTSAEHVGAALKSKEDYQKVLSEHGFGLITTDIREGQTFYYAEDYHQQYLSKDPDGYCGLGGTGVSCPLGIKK

[29] = target: Acyl-homoserine lactone acylase PvdQ (Pseudomonas aeruginosa (strain LESB58), UniProt Q9I194); assay: PvdQ acylase enzyme activity blockers – biochemical, fluorescence, plate reader and imaging, cherry-picks, dose response (AID 493231)
Chain of Acyl-homoserine lactone acylase PvdQ (Q9I194 24-193 limits assumed): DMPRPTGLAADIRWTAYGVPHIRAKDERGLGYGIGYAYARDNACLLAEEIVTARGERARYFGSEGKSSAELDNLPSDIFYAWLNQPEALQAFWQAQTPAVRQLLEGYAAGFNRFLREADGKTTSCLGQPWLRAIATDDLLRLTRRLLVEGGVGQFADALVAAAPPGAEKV
Chain of Acyl-homoserine lactone acylase PvdQ (Q9I194 217-762 limits assumed): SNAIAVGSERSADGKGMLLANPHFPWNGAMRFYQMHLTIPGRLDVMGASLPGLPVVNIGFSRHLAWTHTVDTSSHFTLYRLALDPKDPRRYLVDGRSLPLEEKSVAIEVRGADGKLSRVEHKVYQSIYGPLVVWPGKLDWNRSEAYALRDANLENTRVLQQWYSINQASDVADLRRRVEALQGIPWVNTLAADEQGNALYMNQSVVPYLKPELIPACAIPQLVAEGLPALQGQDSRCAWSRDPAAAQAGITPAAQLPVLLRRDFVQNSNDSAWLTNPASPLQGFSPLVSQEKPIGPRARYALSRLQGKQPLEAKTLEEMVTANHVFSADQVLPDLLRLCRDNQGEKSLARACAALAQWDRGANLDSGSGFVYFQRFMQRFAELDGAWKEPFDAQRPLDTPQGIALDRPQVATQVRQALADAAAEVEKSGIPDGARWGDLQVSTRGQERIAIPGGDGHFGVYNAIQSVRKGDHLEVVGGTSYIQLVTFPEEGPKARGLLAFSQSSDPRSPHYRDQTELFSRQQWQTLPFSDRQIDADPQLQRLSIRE

Clc1ccc(-n2ncc3c(N4CCCCCC4)ncnc32)cc1
EC50 (HEK293 [1]): 2.77 µM (active)
EC50 [2]: > 8 µM (not active)
EC50 (HEK293 [3]): > 13.2 µM (inactive)
EC50 (HEK293 [4]): 3.73 µM (active)
IC50 [5]: 4.43 µM (active)
AC50 [6]: > 52 µM (inactive)
AC50 [7]: > 52 µM (inactive)
AC50 [8]: < 0.068 µM (active)
AC50 [9]: < 0.068 µM (active)
AC50 [10]: > 52 µM (inactive)

CC(C)(C)NC(=O)C(c1ccc(O)cc1)N(C(=O)Cn1nnc(-c2ccc(F)cc2)n1)c1ccccc1F (stereo unspecified)
EC50 [11]: > 35.4 µM (not active)
IC50 (HEK293 [12]): 16.8 µM (not active)
EC50 [13]: > 35.4 µM (not active)

O=C1C2=C(SCCS2)C(=O)N1CCCO
IC50 (Protein Rev): > 75.4 µM (not active)
IC50 [14]: 4.07 µM (active)
IC50 [15]: > 66 µM (inactive)
IC50 [16]: 28 µM (inactive)
EC50 [17]: > 53 µM (inactive)
IC50 [18]: 20.5 µM (inactive)
IC50 [19]: 35.2 µM (inactive)

Cc1cccc(CN2CCCCC2C(=O)N2CCN(c3ccc([N+](=O)[O-])cc3)CC2)c1 (stereo unspecified)
IC50 [20]: 6.1 µM (active)
IC50 [21]: 10 µM (active)

Cc1c(Cl)c(C(=O)NNC(=S)Nc2ccccc2)nn1C
EC50 [22]: 50.5 µM (not active)

O=C(OCC(=O)c1c[nH]c2ccccc12)c1ccc([N+](=O)[O-])s1
IC50 [23]: > 50 µM (not active)
EC50 [24]: 1.04 µM (active)
EC50 [25]: > 60 µM (not active)
IC50 [26]: > 50 µM (not active)
IC50 (cells): 1.62 µM (active)
AC50 [27]: 3.8 µM (active)
EC50 [28]: 36.4 µM (inactive)

Clc1cccc(CNCCCSc2ncccn2)c1
AC50 [29]: 6.84 µM (active)
